What is called IC50 is the concentration at which inhibition is half-maximal.

Three compounds from patent publication US8536168B2 (Novartis AG, priority 2007, dated 2013) can be followed below.

Where two headings read alike, the source gives them in different places.

One assay has as its system Gli-luciferase activity. The assay is described as follows: Reporter gene assay (RGA) in TMHh12 cells, antagonism of Gli-luciferase activity in the presence of a Smo agonist. Format: cell-based. On the procedure: Activity of the compounds was evaluated using a reporter gene assay (RGA) in TMHh12 cells.
On the technique in general: In a reporter assay the amount or activity of a reporter protein is the signal.

Assay [1] deals with mouse Smoothened receptor (Mus musculus, UniProt P56726). The assay can be described thus: Smo binding assay, displacement of radio-labeled smoothened agonist, filter binding format (mouse). The conditions noted are these: displacement of small molecule agonist of Smoothened, read-out: Mouse Smo bdg., IC50. The text has this: A Smo binding assay was developed using radio-labeled smoothened agonist for compound competition.
mouse Smoothened receptor, sequence (P56726 33-793): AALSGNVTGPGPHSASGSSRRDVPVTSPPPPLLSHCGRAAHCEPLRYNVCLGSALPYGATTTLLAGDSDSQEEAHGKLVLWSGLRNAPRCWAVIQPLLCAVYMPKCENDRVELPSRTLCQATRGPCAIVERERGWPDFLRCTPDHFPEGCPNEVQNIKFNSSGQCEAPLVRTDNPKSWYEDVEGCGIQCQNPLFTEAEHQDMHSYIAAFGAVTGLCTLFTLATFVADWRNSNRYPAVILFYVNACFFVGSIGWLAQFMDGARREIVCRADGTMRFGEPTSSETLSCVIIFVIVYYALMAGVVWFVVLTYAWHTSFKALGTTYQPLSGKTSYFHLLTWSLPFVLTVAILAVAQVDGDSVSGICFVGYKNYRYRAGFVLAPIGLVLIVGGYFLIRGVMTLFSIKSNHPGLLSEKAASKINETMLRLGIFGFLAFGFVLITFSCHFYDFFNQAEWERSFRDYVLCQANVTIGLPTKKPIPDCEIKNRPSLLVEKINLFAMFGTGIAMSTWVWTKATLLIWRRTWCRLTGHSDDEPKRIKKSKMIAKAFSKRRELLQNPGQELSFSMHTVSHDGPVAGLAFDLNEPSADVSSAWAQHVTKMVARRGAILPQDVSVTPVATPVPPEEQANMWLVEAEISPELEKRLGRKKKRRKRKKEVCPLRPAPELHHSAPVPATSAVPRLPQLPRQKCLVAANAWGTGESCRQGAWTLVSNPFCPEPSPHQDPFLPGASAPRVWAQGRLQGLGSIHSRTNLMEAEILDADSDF

In assay [2] the target is human Smoothened receptor (Homo sapiens, UniProt Q99835). The assay can be described thus: Smo binding assay, displacement of radio-labeled smoothened agonist, filter binding format (human). The conditions noted are these: displacement of small molecule agonist of Smoothened, read-out: Human Smo bdg., IC50. The text has this:
A Smo binding assay was developed using radio-labeled smoothened agonist for compound competition. Table 9 lists the IC50 for displacement of a small molecule agonist of Smoothened determined in a filter binding format for the mouse and human Smoothened receptor.

[3] abbreviates: 25 nM small molecule Smo agonist, read-out: RGA (25 nM Smo agonist) IC50.
[4] abbreviates: read-out: RGA (1 nM Smo agonist) IC50, 1 nM small molecule Smo agonist.

human Smoothened receptor, sequence (Q99835 28-787): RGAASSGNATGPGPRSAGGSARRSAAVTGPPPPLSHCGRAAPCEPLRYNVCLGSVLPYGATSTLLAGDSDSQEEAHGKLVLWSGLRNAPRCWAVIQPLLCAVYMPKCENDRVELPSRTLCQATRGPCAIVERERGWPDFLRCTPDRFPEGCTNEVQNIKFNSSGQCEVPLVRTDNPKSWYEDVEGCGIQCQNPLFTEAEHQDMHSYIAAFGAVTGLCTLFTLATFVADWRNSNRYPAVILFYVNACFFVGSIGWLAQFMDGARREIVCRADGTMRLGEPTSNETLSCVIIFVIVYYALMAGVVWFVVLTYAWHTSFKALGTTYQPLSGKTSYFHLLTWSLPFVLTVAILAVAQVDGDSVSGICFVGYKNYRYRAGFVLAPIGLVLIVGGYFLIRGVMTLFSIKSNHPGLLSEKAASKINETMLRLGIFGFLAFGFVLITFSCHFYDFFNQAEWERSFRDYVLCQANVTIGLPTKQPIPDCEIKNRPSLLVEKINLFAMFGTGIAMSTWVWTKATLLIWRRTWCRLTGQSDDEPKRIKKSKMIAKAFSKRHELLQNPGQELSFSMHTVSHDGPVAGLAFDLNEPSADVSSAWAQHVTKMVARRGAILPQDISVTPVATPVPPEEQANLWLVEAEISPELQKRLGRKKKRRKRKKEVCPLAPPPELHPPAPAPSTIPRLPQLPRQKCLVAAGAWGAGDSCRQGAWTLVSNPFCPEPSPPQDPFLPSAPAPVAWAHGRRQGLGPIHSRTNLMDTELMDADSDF

As for `CC(C)(O)Cc1ccc(N2CCN(c3nnc(Cc4ccccc4)c4ccccc34)CC2)nc1` [Example 172, 1-{6-[4-(4-Benzyl-phthalazin-1-yl)-piperazin-1-yl]-pyridin-3-yl}-2-methyl-propan-2-ol], the IC50 (in the assay with Gli-luciferase activity (setting [3]); in the assay with Gli-luciferase activity (setting [4]); in assay [1]; in assay [2]) was less than 100 nM in each case.

In the case of `CCOC(=O)c1cnc(N2CCN(c3nnc(Cc4ccccc4)c4ccccc34)C[C@H]2C(=O)OC)nc1C(F)(F)F` [Example 147, 2-[(S)-4-(4-Benzyl-phthalazin-1-yl)-2-methoxycarbonyl-piperazin-1-yl]-4-trifluoromethyl-pyrimidine-5-carboxylic acid ethyl ester], the IC50 is 1000 to 10000 nM in the assay with Gli-luciferase activity (setting [3]), 100 to 1000 nM in the assay with Gli-luciferase activity (setting [4]), 100 to 1000 nM in assay [1] and less than 100 nM in assay [2].

Regarding `COC(=O)Nc1ccc(N2CCN(c3nnc(Cc4ccccc4)c4ccccc34)CC2)nc1` [Example 239, {6-[4-(4-Benzyl-phthalazin-1-yl)-piperazin-1-yl]-pyridin-3-yl}-carbamic acid methyl ester], the IC50 in the assay on Gli-luciferase activity (setting [3]) was 100 to 1000 nM; in the assay with Gli-luciferase activity (setting [4]) it was less than 100 nM; in assay [1], less than 100 nM; in assay [2], 100 to 1000 nM.
